Earlier results on three compounds are cited in patent publication US20120116113A1, “PROCESS FOR MAKING NEO-ENRICHED p-MENTHANE COMPOUNDS” (priority 2010, published 2012).

The conditions of this data set: for initial cooling rating: table below paragraph [0137] of U.S. Pat. Appl. 2010/0076080.

Turning to `CC(C)[C@@H]1CC[C@@H](C)C[C@@H]1C(=O)Nc1ccc(CC#N)cc1` (single isomer, unassigned) [neo isomer [of G-180]], the cooling effect entry (according to Yelm et al., U.S. Pat. Appl. 2010/0076080) is “potent and long-lasting cooling effect”.

`CCOC(=O)CNC(=O)C1CC(C)CCC1C(C)C` (stereo not drawn) [neo-WS-5]: the initial cooling rating is listed as 61.9. In the case of `CCOC(=O)CNC(=O)[C@@H]1C[C@H](C)CC[C@H]1C(C)C` [normal WS-5], the initial cooling rating was 53.9.
